Each structure is given as a SMILES string. Where two headings read alike, the source gives them in different places.

For data set [1] the following is noted: ambient temperature; hydrolyzed to monohydroxymelphalan, then dihydroxymelphalan; cited from earlier work.
Data set [2] is described as follows: PK of melphalan in plasma by ESI-LC-MS/MS in patients undergoing HSCT. Type of data set: in vivo. The note with it: human, intravenous. As for the experimental part: Patients undergoing HSCT were administered by intravenous infusion a low dose of melphalan (referred to as the ‘test’ dose) to first determine each patient's individualized pharmacokinetics of the drug. After that the personalized optimal full dose was calculated from these measurements and then administered. The test dose equated to 10% of the expected standard full dose for each patient. Blood samples for pharmacokinetic measurement were collected after the test dose and again after the full standard dose of melphalan. Samples were collected at baseline, 5-10 mins before drug infusion, and then 5 min, 15 min, 30 min, 45 min, 1 h, 2h, 2.5h, 4h, and 6h post-infusion. The blood samples were collected on ice and immediately transferred to the lab for PS-MS/MS analysis after collection to minimize drug degradation. Plasma samples from the same blood draw were also obtained after centrifugation at 3000 rpm for 15 min and stored at −80° C. degree until analyzed by both PS-MS/MS and LC-ESI-MS/MS.
Each patient's pharmacokinetic profile was determined using WinNonlin v6.4 (Pharsight, Mountain View, Calif.). […]
The PS-MS\MS method was validated in accordance with the FDA guidance for Bioanalytical Method Validation (fda.gov/downloads/Drugs/Guidance/ucm070107.pdf, May 2011), and Bansa S, et al., AAPS J., 2007, 9, 109-114. Specifically, three analytical runs were processed and analyzed to assess sensitivity, reproducibility, accuracy and precision. […] The assay accuracy was evaluated by comparing results obtained by PS-MS/MS to those obtained by a validated in-house LC-MS/MS melphalan assay for the same samples, wherein melphalan samples were measured by liquid chromatography-tandem mass spectrometry (LC-MS/MS) with selected-reaction monitoring and with the use of stable isotopic-labeled [2H8]-melphalan as the internal standard. Samples were analyzed with the LC20AD HPLC system (Shimadzu) coupled to the TSQ Quantum Ultra Triple Quadrupole Mass Spectrometer (Thermo Scientific). […]

The subject of a further data set is plasma proteins. The conditions noted are these: cited from earlier work.

As for `N[C@@H](Cc1ccc(N(CCCl)CCCl)cc1)C(=O)O` [melphalan, 4-[Bis(2-chloroethyl)amino]-L-phenylalanine], the “stability in blood and plasma” value in data set [1] is “unstable”. Besides, the AUC in data set [2] (10 % of the expected standard full dose, lower test doses, ESI-LC-MS/MS, n=4, read-out: calculated mean AUC) was 430 ± 210 ng·h/mL; in data set [2] (Full Dose, individual patients and mean row, read-out: ESI-LC-MS/MS Plasma AUC), 3900 ng·h/mL; in data set [2] (full dose, ESI-LC-MS/MS method, n=5, read-out: calculated mean AUC), 4300 ± 1000 ng·h/mL. Also, in the data set on plasma proteins, the interactions with immunoglobulins entry is given as “negligible”. Also, in the data set on plasma proteins (plasma), the “melphalan (covalently) irreversibly bound to plasma proteins” value was “Approximately 30%”.

Values taken from patent US20220205982A1 (CHILDREN'S HOSPITAL MEDICAL CENTER, priority 2019, published 2022).
